# According to US20140377773A1, “Detection Marker for Anticancer Effects by Selenomethionine as an Inhibitor of Environmental Toxicity” (Dongguk University Industry-Academic Cooperation Foundation, priority 2013, published 2014):
# How the values were obtained:
# [1] = test system: PNP (purine nucleoside phosphorylase); assay: Immunohistochemical analysis of colon tissue: PNP; type: in vivo, mouse; settings: immunohistochemistry
# Description: (§1) Immunohistochemical analysis of the PHB, PNP, ANXA2 and CRP markers determined in Example 4 for the colon tissue samples obtained from groups 1 to 4 in Example 1 was performed.
# (§2) Specifically, the colon paraffin sections obtained from the mice of groups 1 to 4 in […] were deparaffinized and rehydrated. In addition, endogenous peroxidases were quenched with methanol containing 0.3% H2O2 for 20 minutes. The sections were incubated with the primary antibodies anti-prohibitin (H-80) (sc-28259, Santa Cruz Biotechnology), anti-PNP (sc-135163, Santa Cruz Biotechnology), anti-CRP (H-90) (sc-30047, Santa Cruz Biotechnology), anti-annexin II (H-50) (sc-9061, Santa Cruz Biotechnology) and anti-8-OhdG (MOG-100P, JaICA) at 4° C. overnight. Then, the sections were incubated with biotin-conjugated secondary antibodies corresponding to the primary antibodies for 30 minutes, after which the sections were washed with PBS and incubated with streptavidin horseradish peroxidase (Vector Labs) for 30 minutes. The sections were washed with PBS, and then incubated with a DAB (3,3′-diaminobenzidine) substrate solution containing 1.8×10^−3% (v/v) of H2O2 for 10 minutes. […] The degree of staining of each of the markers in tumor cells developed in the stained tissues of each group was measured according to the method described in “Charafe-Jauffret, E., et al. (2004). […]
# AOM-DSS mouse model = type: in vivo; settings: group 4 (15 ppm SeMet pretreatment + AOM-DSS) compared to group 3 (AOM-DSS)
# Description: In order to examine the chemopreventive activity of SeMet (selenomethionine) against the development of colorectal cancer, the frequency and size of colon polyps in an inflammation-related colorectal cancer-induced mouse model according to the intake of SeMet (selenomethionine) were examined.
# Specifically, an experiment was performed using forty eight 5-week-old ICR male mice (Lab Animal, Korea) divided into the following groups: group 1: treated with neither SeMet (selenomethionine) nor AOM-DSS; group 2: treated with 15 ppm SeMet (selenomethionine) (Pharma Se Inc, USA); group 3: treated with AOM-DSS; and group 4: pretreated with 15 ppm SeMet (selenomethionine) and then treated with AOM-DSS (FIGS. 1A and 1B).
# AOM (azoxymethane) (Sigma-Aldrich Co, USA) that is a colorectal cancer-inducing substance was injected intraperitoneally (i.p.) into the mice at a dose of 10 mg/kg, and 1.5% (w/v) of dextran sodium sulfate (DSS) (MP Biomedicals, LLC, USA) that is a colitis-inducing substance was allowed to drink for one week after injection of AOM.
# The mice of the four groups were euthanized with CO2 gas when reached 22 weeks of age, and the colons were extracted and observed.
# PHB (prohibitin) = assay: Immunohistochemical analysis of colon tissue: PHB; type: in vivo, mouse; settings: immunohistochemistry
# Description: as §1, §2
# [2] = test system: AOM-DSS-induced colorectal cancer; assay: Histopathological observation (H & E) of colon tissue of AOM-DSS mice; type: in vivo, mouse; settings: group 4 (SeMet pretreatment + AOM-DSS) compared to group 3 (AOM-DSS alone)
# Description: (§3) Each of the colons extracted from the mice in Example 1 was fixed in 10% formalin, and then embedded in paraffin to make FFPE (paraffin-embedded) samples. Each of the FFPE samples was sectioned to a thickness of 10 μm and mounted on micro-slides (MUTO-GLASS, Japan), followed by drying at 37° C. overnight. Then, the paraffin sections were deparaffinized with xylene and concentration gradient alcohol. The deparaffinized tissue sections were stained with hematoxylin and eosin (H & E) (Sigma Aldrich) and an antibody (MOG-100P, JaICA) of 8-OHdG (8-hydroxy-2′-deoxyguanosine) known as an oxidative stress marker.
# colon tissues = assay: 2-DE and nano-HPLC-ESI-QIT-MS proteomics of colon tissue; type: in vivo, mouse; settings: group 4 vs group 3
# Description: In order to investigate the molecular target of SeMet (selenomethionine) having chemopreventive activity against colorectal cancer, the colon tissue samples obtained from the mice of groups 1 to 4 in Example 1 were analyzed using a 2-DE (2-dimensional electrophoresis) method.
# Specifically, the colon tissues (excluding polyps) obtained from group 1 treated neither with SeMet (selenomethionine) nor AOM-DSS, group 2 treated with 15 ppm SeMet (selenomethionine) (Pharma Se Inc, USA), group 3 treated with AOM-DSS and group 4 treated with AOM-DSS after pretreatment with 15 ppm SeMet (selenomethionine) were washed with homogenization buffer A (50 mM Tris-HCl (pH7.5), 2 mM EDTA, 150 mM NaCl and 0.5 mM DTT) and then cut to small pieces. The pieces were homogenized in buffer (50 mM Tris-HCl (pH 7.5), 0.25 M sucrose, 5 mM magnesium acetate, 0.2 mM EDTA and 0.5 mM DTT) supplemented with Halt™ protease inhibitor cocktail (Thermo Fisher Scientific, Rockford, Ill.) on ice using a grinding kit (GE Healthcare Life Science, Uppsala, Sweden). Then, the solution was centrifuged at 13,000 rpm at 4° C. for 30 minutes, and 10% trichloroacetic acid was added to the supernatant to precipitate proteins. The collected precipitate was dissolved in rehydration buffer (8 M urea, 2% CHAPS, 50 mM DTT and 0.2% IPG buffer), and then, in order to perform 2D gel electrophoresis, the concentration of the proteins was adjusted with a BCA protein analysis kit (Thermo Fisher Scientific), and 200 μg of each protein was separated with Immobiline Dry Strip (pH 4-7, 18 cm, GE healthcare). 2D separation was performed on 12% acrylamide gel in Ettan Dalt II system (10 mA/gel; 1 hr, 40 mA/gel; >6 hr) (GE Healthcare Life Science, Uppsala, Sweden) for 7 hours. Then, the gel having proteins separated thereon stained using silver staining technology, after which the image of the gel was analyzed using Progenesis SameSpots software (version. 4.1, Nonlinear Dynamics, Newcastle, UK), and spots on the gel were detected. In analysis of the gel image, the gel was automatically aligned by measurement of alignment vectors using an analysis wizard, and master images of the experimental groups were made using Progenesis SameSpots software. The master images were used to normalize and quantify the spot volume and to analyze the proteins showing a difference in expression between the groups.
# In order to investigate the molecular target of SeMet (selenomethionine) having chemopreventive activity against colorectal cancer, the colon tissue samples obtained from groups 1 to 4 in Example 1 were analyzed by mass spectrometry.
# The cut spots were treated with trypsin, and protein identification was performed using a nano LC/MS system composed of a Surveyor HPLC system (Thermo Scientific, Waltham, Mass.) equipped with a nano-ESI source and an electrospray ionization (ESI)-quadrupole ion trap (QIT) mass spectrometer (LCQ Deca XP-Plus, Thermo Finnigan, San Jose, Calif., USA). In order to desalt and concentrate 10 μl of trypsin peptides, the peptide was loaded into a C18 trap column (i.d. 300 μm, length 5 mm, particle size 5 μm; LC Packings, Amsterdam, Netherlands) through an auto sampler at a flow rate of 20 μl/min. Then, the trapped peptides were allowed to flow backward and separated in a C18 reversed-phase capillary column (75 μm silica tube, length 150 mm, particle size 5 μm). The pump flow rate was split 1:100 for a column flow rate of […]. Mobile phase A was a solution of a mixture of 0.5% acetic acid and 0.02% formic acid in water, and mobile phase B was a solution of a mixture of 0.5% acetic acid and 0.02% formic acid in 80% acetonitrile. The samples were injected into the column and eluted by mobile phase B at a concentration gradient of 5-5 20 50 60 80 100% for 0-15-18-50-55-60-62 minutes, respectively. MS and MS/MS spectra were obtained using a capillary tube (temperature: 220° C., ESI voltage: 2.5 kV, and collision energy: 35%). […]
# ANXA2 (annexin A2) = assay: Immunohistochemical analysis of colon tissue: ANXA2; type: in vivo, mouse
# Description: as §1, §2
# [3] = test system: 8-OHdG (8-hydroxy-2'-deoxyguanosine); assay: 8-OHdG oxidative stress marker staining of colon tissue; type: in vivo, mouse; settings: group pretreated with SeMet and treated with AOM-DSS compared to group treated with AOM-DSS
# Description: as §3
# [4] = test system: AOM-induced premalignant lesions; settings: AOM-DSS mouse models (Baines 2000); cited from earlier work
# CRP (C-reactive protein) = assay: Immunohistochemical analysis of colon tissue: CRP; type: in vivo, mouse
# Description: as §1, §2
# CRC = settings: patients who take selenium (Marshall 2008); cited from earlier work
# [5] = administration of SeMet alone (group 2)
# [6] = group 4 (SeMet pretreatment + AOM-DSS) vs AOM-DSS-induced colorectal cancer tissue
# [7] = pretreatment with SeMet + AOM-DSS vs colorectal cancer development, immunohistochemistry
smiles,measurement,setting,value
"C[Se]CC[C@H](N)C(=O)O [SeMet, selenomethionine]",expression of PNP,[1]; [5],increased
same,expression of PNP,[1]; [6],increased again
same,polyps in the colon,AOM-DSS mouse model,significantly decreased
same,expression of PHB,PHB (prohibitin); [5],increased
same,expression of PHB,PHB (prohibitin); [6],increased again
same,dysplasia and neoplastic lesions,[2],decreases
same,Expression in SeMet/AOM-DSS,"colon tissues; Alcohol dehydrogenase (Akr1a4), spot 50",Decreased
same,Expression in SeMet/AOM-DSS,"colon tissues; Aldose reductase (Akr1b3), spot 49",Decreased
same,Expression in SeMet/AOM-DSS,"colon tissues; Annexin 1 (Anxa1), spot 51",Decreased
same,Expression in SeMet/AOM-DSS,"colon tissues; Annexin 2 (Anxa2), spot 48",Decreased
same,Expression in SeMet/AOM-DSS,"colon tissues; Annexin 3 (Anxa3), spot 40",Increased
same,Expression in SeMet/AOM-DSS,"colon tissues; Annexin 7 (Anxa7), spot 57",Increased
same,Expression in SeMet/AOM-DSS,"colon tissues; Beta-actin (Actb), spot 39",Increased
same,Expression in SeMet/AOM-DSS,"colon tissues; C-reactive protein (Crp1), spot 14",Decreased
same,Expression in SeMet/AOM-DSS,"colon tissues; Cofilin 1 (Cfl1), spot 4",Decreased
same,Expression in SeMet/AOM-DSS,"colon tissues; Cofilin 2 (Cfl2), spot 4",Decreased
same,Expression in SeMet/AOM-DSS,"colon tissues; Destrin (Dstn), spot 5",Decreased
same,Expression in SeMet/AOM-DSS,"colon tissues; Eukaryotic translation initiation 5A (Eif5a), spot 10",Increased
same,Expression in SeMet/AOM-DSS,"colon tissues; Glutathione transferase omega 1 (Gsto1), spot 25",Decreased
same,Expression in SeMet/AOM-DSS,"colon tissues; Hypoxanthine-guanine phosphoribosyltransferase 1 (Hprt1), spot 29",Decreased
same,Expression in SeMet/AOM-DSS,"colon tissues; Inorganic pyrophosphatase 1 (Ppa1), spot 38",Increased
same,Expression in SeMet/AOM-DSS,"colon tissues; Isoform 1 of Isocitrate dehydrogenase [NAD] subunit alpha (Idh3a), spot 41",Increased
same,Expression in SeMet/AOM-DSS,"colon tissues; Isoform 1 of Tropomyosin alpha-1 chain (Tpm1), spot 43",Decreased
same,Expression in SeMet/AOM-DSS,"colon tissues; L-lactate dehydrogenase A chain (Ldha), spot 47",Decreased
same,Expression in SeMet/AOM-DSS,"colon tissues; Nucleoside diphosphate kinase B (Nme2), spot 8",Decreased
same,Expression in SeMet/AOM-DSS,"colon tissues; Peroxiredoxin 1 (Prdx1), spot 16, 21",Decreased
same,Expression in SeMet/AOM-DSS,"colon tissues; Peroxiredoxin 4 (Prdx4), spot 16, 21",Decreased
same,Expression in SeMet/AOM-DSS,"colon tissues; Phosphoglycerate mutase 2 (Pgam2), spot 24",Decreased
same,Expression in SeMet/AOM-DSS,"colon tissues; Prohibitin (Phb), spot 34",Increased
same,Expression in SeMet/AOM-DSS,"colon tissues; Proteasome activator complex subunit 1 (Psme1), spot 32",Increased
same,Expression in SeMet/AOM-DSS,"colon tissues; Proteasome subunit beta type 1 precursor (Psmb1), spot 18",Decreased
same,Expression in SeMet/AOM-DSS,"colon tissues; Purine nucleoside phosphorylase (Pnp), spot 33",Increased
same,Expression in SeMet/AOM-DSS,"colon tissues; S-formylglutathione hydrolase (Esd), spot 46",Decreased
same,Expression in SeMet/AOM-DSS,"colon tissues; Transaldolase (Taldo1), spot 52",Decreased
same,Expression in SeMet/AOM-DSS,"colon tissues; Triosephosphate isomerase 1 (Tpi1), spot 19, 23",Decreased
same,Expression in SeMet/AOM-DSS,"colon tissues; Ubiquinol cytochrome c reductase 1 (Uqcrfs1), spot 20",Decreased
same,expression of ANXA2,ANXA2 (annexin A2); SeMet administered alone,did not change
same,expression of ANXA2,ANXA2 (annexin A2); [7],decreased
same,8-OHdG in colon tissue,[3],decreased
same,development of AOM-induced premalignant lesions,[4],reduces
same,expression of CRP,CRP (C-reactive protein); SeMet administered alone,did not change
same,expression of CRP,CRP (C-reactive protein); [7],decreased
[Se] [selenium],reduction of the risk of CRC,CRC,about 50%
